Laboratory results: ChEMBL document CHEMBL4651402, “Screening of ~5500 FDA-approved drugs and clinical candidates for anti-SARS-CoV-2 activity” (2021)

Test system: SARS-CoV-2
Experiment: microbe, parasite or virus in culture
Conditions: Severe acute respiratory syndrome coronavirus 2, Vero C1008, 48 h

Structure (SMILES)	IC50 [µM]	IC50 (read-out: pIC50 (converted)) [µM]
CCCCCCOC(=O)NC(=N)c1ccc(NCc2nc3cc(C(=O)N(CCC(=O)OCC)c4ccccn4)ccc3n2C)cc1 [DABIGATRAN ETEXILATE]	> 20	> 20
CC(C)(C)c1nc(-c2cccc(NS(=O)(=O)c3c(F)cccc3F)c2F)c(-c2ccnc(N)n2)s1 [DABRAFENIB]	> 20	> 20
COc1cc2ncnc(Nc3ccc(F)c(Cl)c3)c2cc1NC(=O)/C=C/CN1CCCCC1 [DACOMITINIB ANHYDROUS]	> 20	> 20
NC(=O)c1ccn2c1CS[C@@H]2c1cccnc1 [DACOPAFANT]	> 20	> 20
Cn1c(=O)n(-c2ccc(C(C)(C)C#N)cc2)c2c3cc(-c4cnc5ccccc5c4)ccc3ncc21 [DACTOLISIB]	> 20	> 20
O=c1c(-c2ccc(O)cc2)coc2cc(O)ccc12 [DAIDZEIN]	> 20	> 20
CCC(CC)CC1(C(=O)Nc2ccccc2SC(=O)C(C)C)CCCCC1 [DALCETRAPIB]	> 20	> 20
CCNC(=O)NCCCOc1cccc(CN2CCCCC2)c1 [DALCOTIDINE]	> 20	> 20
Nc1ccncc1 [DALFAMPRIDINE]	> 20	> 20
C#C[C@]1(O)CC[C@H]2[C@@H]3CCC4=Cc5oncc5C[C@]4(C)[C@H]3CC[C@@]21C [DANAZOL]	> 20	> 20
O=C1c2cccc(O)c2C(=O)c2c(O)cccc21 [DANTHRON]	> 20	> 20
O=C1CN(/N=C/c2ccc(-c3ccc([N+](=O)[O-])cc3)o2)C(=O)N1 [DANTROLENE]	> 20	> 20
CO[C@@H](C(=O)N1Cc2[nH]nc(NC(=O)c3ccc(N4CCN(C)CC4)cc3)c2C1)c1ccccc1 [DANUSERTIB]	> 20	> 20
CCOc1ccc(Cc2cc([C@@H]3O[C@H](CO)[C@@H](O)[C@H](O)[C@H]3O)ccc2Cl)cc1 [DAPAGLIFLOZIN]	> 20	> 20
Cc1cc(C)c(Nc2ccnc(Nc3ccc(C#N)cc3)n2)c(C)c1 [DAPIVIRINE]	> 20	> 20
O=C(/C=C/c1cccnc1)NCCCCC1CCN(C(=O)c2ccccc2)CC1 [DAPORINAD]	> 20	> 20
CN(C)[C@@H](CCOc1cccc2ccccc12)c1ccccc1 [DAPOXETINE]	> 20	> 20
O=C(O)CNC(=O)C1C(=O)N(C2CCCCC2)C(=O)N(C2CCCCC2)C1=O [DAPRODUSTAT]	> 20	> 20
Nc1ccc(S(=O)(=O)c2ccc(N)cc2)cc1 [DAPSONE]	> 20	> 20

Structure (SMILES)	IC50 [µM]	IC50 (read-out: pIC50 (converted)) [µM]
CCOC(=O)C1=C(C)NC(C)=C(C(=O)OCC)C1c1cccc2nonc12 [DARODIPINE]	> 20	> 20
CC(O)c1cc(C(=O)N[C@@H](C)Cn2ccc(-c3ccc(C#N)c(Cl)c3)n2)n[nH]1 (stereo partly specified) [DAROLUTAMIDE]	> 20	> 20
CC1(N)CCN(c2cccnc2NC(=O)c2nc(-c3ncccc3C(F)(F)F)cnc2N)CC1 [DAROVASERTIB]	> 20	> 20
Cc1nc(Nc2ncc(C(=O)Nc3c(C)cccc3Cl)s2)cc(N2CCN(CCO)CC2)n1 [DASATINIB]	> 20	> 20
N[C@@H]1CC[C@@H](c2ccc(Cl)c(Cl)c2)c2ccccc21 [DASOTRALINE]	> 20	> 20
COc1cccc2c1C(=O)c1c(O)c3c(c(O)c1C2=O)C[C@@](O)(C(C)=O)C[C@@H]3O[C@H]1C[C@H](N)[C@H](O)[C@H](C)O1 [DAUNORUBICIN]	> 20	> 20
COc1cc(CC(=O)NCCCc2ccc(C)c(C)c2)ccc1OCCN [DAVASAICIN]	> 20	> 20
OC(C1=NCCN1)(c1ccc(Cl)cc1)c1ccccn1 (stereo unspecified) [DAZADROL]	> 20	> 20
Cc1c(Cn2ccnc2)c2ccccc2n1CCC(=O)O [DAZMEGREL]	> 20	> 20
CCN1CC(NC(=O)c2cc(Cl)c(N)cc2OC)CN1CC [DAZOPRIDE]	> 20	> 20
O=C(O)c1ccc(OCCn2ccnc2)cc1 [DAZOXIBEN]	> 20	> 20
CC(N)C(=O)c1ccccc1 (stereo unspecified) [DEALKYLATED DIETHYLPROPION]	> 20	> 20
N=C(N)N1CCc2ccccc2C1 [DEBRISOQUIN]	> 20	> 20
C[N+](C)(C)CCCCCCCCCC[N+](C)(C)C [DECAMETHONIUM]	> 20	> 20
CC[C@@](C)(Nc1ccnc(-c2c[nH]c3ncccc23)n1)C(=O)NCC(F)(F)F [DECERNOTINIB]	> 20	> 20
Nc1ncn([C@H]2C[C@H](O)[C@@H](CO)O2)c(=O)n1 [DECITABINE]	> 20	> 20
CCN(CC)CCNC(=O)c1ccc(N)c(Cl)c1 [DECLOPRAMIDE]	> 20	> 20
Nc1ccc(C#Cc2cnn3c(C(F)(F)F)cc(-c4ccc(C(F)(F)F)cc4)nc23)cn1 [DECOGLURANT]	> 20	> 20
CNC(=O)c1ccc(Nc2ncc(C(F)(F)F)c(NCc3nccnc3N(C)S(C)(=O)=O)n2)cc1 [DEFACTINIB]	> 20	> 20
